Data: ChEMBL document CHEMBL1201862, “PubChem BioAssay data set” (2004)
Several values for one entry are separate records, joined by “and”; a condition that tells them apart may be missing. Equal entries are not always repeated. Activity calls are given as the source filed them.

Experiments:
[1] = viability of PTEN-deleted HCT116 cells – cell-based, HCT116 PTEN knockout, dose response (AID 1047); assay type: functional;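 note: HCT116 colon tumor cells with PTEN knocked out; cells exposed to compound for 60 hours before readout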
[2] = viability of HCT116 lacking mutant beta-catenin – cell-based, human colon tumor, dose response (AID 1045); assay type: functional;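 note: HCT116 colon tumor cells with beta catenin knocked out; cells exposed to compound for 60 hours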
[3] = tested on: CHO; experiment: CHO cell viability loss, potency – luminescence, cytotoxicity control for TLR9-MyD88 binding inhibitor project, dose response (AID 588339); assay type: functional, cell-based, hamster; conditions: Cricetulus griseus;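 note: CHO cells stably coexpressing TLR9 and MyD88 fusions from primary screen; compound exposure lasted 48 hours before viability readout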
[4] = biological target: T1, Beta Lactamase (Pseudomonas aeruginosa, UniProt Q932Y6); experiment: BLA reporter interference, concentration series – BLA reporter cells, FRET fluorescence, artefact control for TLR9-MyD88 binding inhibitor project, dose response (AID 588341); assay type: cell-based;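 note: cell based assay in CHO-K1 cells stably expressing beta-lactamase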
[5] = biological target: Dual specificity protein kinase CLK1 (Homo sapiens, UniProt P49759); experiment: inhibition of human CLK1 activity – biochemical, cherry-picked samples, selectivity assay for Dyrk1A inhibitor project, dose response (AID 588811)
[6] = NIH-3T3 fibroblast cytotoxicity, dose response, cytotoxicity control, cell-based, fluorescence, Alamar Blue, secondary assay (AID 2327); assay type: functional;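 note: NIH-3T3 mouse fibroblasts cultured with fluconazole at 8 µg/mL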
[7] = fluconazole-exposed Candida albicans growth modulators – fluorescence, retest, confirmation (AID 2467); assay type: functional, cell-based
[8] = biological target: Serine/threonine-protein phosphatase (Candida dubliniensis (strain CD36 / CBS 7987 / NCPF 3949 / NRRLY-17841) (Yeast), UniProt B9W6M3); experiment: blockers of CaCl2-induced CDRE-lacZ signaling – S. cerevisiae, luminescence, secondary, dose response (AID 2388); assay type: functional, cell-based;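 note: yeast reporter cells carrying a calcineurin-responsive lacZ construct stimulated with calcium chloride; luminescent beta-galactosidase reporter signal in whole cells rather than isolated phosphatase activity; potency for inhibition where a drop in reporter signal means calcineurin blockade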
[9] = biological target: ATP-dependent molecular chaperone HSP82 (Candida albicans (strain WO-1) (Yeast), UniProt C4YTQ8); experiment: steroid-induced GRE reporter decrease in yeast – S. cerevisiae, luminescence, Hsp90 inhibitor project, dose response (AID 2400); assay type: functional, cell-based;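 note: beta-galactosidase luminescence from glucocorticoid response element reporter as proxy for Hsp90 function; inhibitor potency where signal loss means Hsp90 inhibition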
[10] = tested on: Escherichia coli; experiment: microbe, parasite or virus in culture
[11] = tested on: Escherichia coli; experiment: microbe, parasite or virus in culture; remark: listed apart in the source
[12] = tested on: HEK293; experiment: HEK293T cell viability loss, resazurin readout – resazurin fluorescence, cytotoxicity control for NF-kB activator project, SAR follow-up (AID 493251); assay type: functional, cell-based; conditions: Homo sapiens
[13] = tested on: Jurkat; experiment: SAR Analysis of small molecule inhibitors of T-cell specific antigen receptor-induced NF-kB activation in a Jurkat cell line using a luminescence assay - Set 2. [Related pubchem assays (depositor defined):AID435003, AID435012, AID465]; assay type: functional, cell-based; conditions: Homo sapiens
[14] = tested on: HEK293; experiment: SAR Analysis of small molecule inhibitors of T-cell specific antigen receptor-induced NF-kB activation in a HEK-293T cell line using a luminescence assay - Set 2. [Related pubchem assays (depositor defined):AID435003, AID435012, AID489026]; assay type: functional, cell-based; conditions: Homo sapiens
[15] = biological target: DNA topoisomerase (Yersinia pestis, UniProt A0A2S9PM60); experiment: Yersinia topoisomerase I cleavage product accumulation – biochemical, cherry-pick, dose response (AID 588525)
[16] = tested on: HeLa; experiment: viability loss in HeLa cells – cell-based, 24 h, cherry-picked samples, cytotoxicity control, dose response (AID 504726); assay type: functional; conditions: Homo sapiens
[17] = biological target: Troponin, cardiac muscle (Homo sapiens, UniProt P19429+P45379+P63316); experiment: Fluorescence-based biochemical high throughput dose response assay for activators of the calcium sensitivity of cardiac Regulated Thin Filaments (RTF). [Related pubchem assays (depositor defined):AID493008, AID493018, AID504382, AID504383]; assay type: protein-complex assay
[18] = tested on: Vero; experiment: cells; assay type: functional, cell-based; conditions: Chlorocebus sabaeus
[19] = tested on: Vero; experiment: cells; assay type: functional; conditions: Chlorocebus sabaeus
[20] = reduction of Shn3 3'UTR-driven luciferase in osteoblasts – cell-based, Clone20 osteoblasts, firefly luciferase, cherry-picked, dose response (AID 624132); assay type: functional;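 note: firefly luciferase luminescence from reporter carrying the Shn3 3'UTR in osteoblasts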
[21] = loss of viability in HepG2 cells – cell-based, CellTiter-Glo, cherry-picked, cytotoxicity control for Shn3 inhibitor project, dose response (AID 624134); assay type: functional
[22] = non-specific 3'UTR reporter inhibition in Clone20-Shn3RL – cell-based, Renilla luciferase, cherry-picked, counter-screen for Shn3 inhibitor project, dose response (AID 624133); assay type: functional
[23] = Fluorescence-based cell-based high throughput dose response assay for inhibitors of the interaction of nucleotide-binding oligomerization domain containing 2 (NOD2) and the receptor-interacting serine-threonine kinase 2 (RIPK2).; assay type: functional; conditions: Homo sapiens
[24] = biological target: T1, Beta Lactamase; experiment: BLA reporter interference, concentration series – BLA reporter cells, FRET fluorescence, artefact control for NOD2-RIPK2 interaction inhibitor project, dose response (AID 651552); assay type: functional, cell-based
[25] = luciferase reporter signal suppression in cells – H4 neuroglioma cells, luminescence, dose response (AID 1990); assay type: functional, cell-based
[26] = tested on: Streptococcus sp. 'group A'; experiment: Streptococcus pyogenes SK(-)GAS viability under kanamycin – luminescence, BacTiterGlo, confirmation, counter-screen for streptokinase expression inhibitor project, dose response (AID 1900); assay type: functional, organism-based
[27] = Luminescence Cell-Based Dose Response HTS to Identify Inhibitors of 5'UTR Stem-Loop Driven Prion Protein mRNA Translation in H4 Neuroglioblastoma Cells. [Related pubchem assays: 1827 (Project Summary), 1813 (Primary HTS)]; assay type: functional
[28] = alpha-synuclein stem-loop luciferase translation blockers – H4 neuroglioma cells, luminescence, confirmation (AID 1988); assay type: functional, cell-based
[29] = biological target: T2, Streptokinase A (Streptococcus pyogenes serotype M1, UniProt P10520); experiment: viability-normalized secreted streptokinase activity reduction – plasminogen activation absorbance, OD405, dose response (AID 1914); assay type: functional, Streptococcus pyogenes M1 GAS;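 note: secreted streptokinase activity via plasminogen activation per viability signal from cell pellet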
T2 sequence (P10520 whole entry): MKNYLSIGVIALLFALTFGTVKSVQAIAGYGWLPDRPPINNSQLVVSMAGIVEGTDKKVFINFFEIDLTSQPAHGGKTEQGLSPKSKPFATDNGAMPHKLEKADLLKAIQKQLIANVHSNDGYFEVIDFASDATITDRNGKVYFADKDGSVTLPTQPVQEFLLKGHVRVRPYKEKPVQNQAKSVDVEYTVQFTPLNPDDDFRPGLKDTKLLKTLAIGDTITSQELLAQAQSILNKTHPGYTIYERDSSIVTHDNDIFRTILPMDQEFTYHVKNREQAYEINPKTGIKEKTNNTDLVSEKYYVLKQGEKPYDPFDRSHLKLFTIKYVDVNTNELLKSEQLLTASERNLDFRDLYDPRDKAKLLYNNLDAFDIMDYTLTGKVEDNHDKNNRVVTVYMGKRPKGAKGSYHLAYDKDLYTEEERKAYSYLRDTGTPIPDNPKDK

[30] = tested on: Streptococcus; experiment: GAS UMAA2166 growth inhibition – luminescence, BacTiterGlo, counter-screen for streptokinase expression inhibitor project, dose response (AID 1915); assay type: functional, organism-based;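 note: potency for reduction of bacterial viability or growth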
[31] = biological target: T3, Galanin receptor type 3 (Homo sapiens, UniProt O60755); experiment: Fluorescence-based cell-based primary high throughput dose response assay to identify antagonists of the Galanin Receptor 3 (GalR3).; assay type: functional
T3 sequence (O60755 whole entry): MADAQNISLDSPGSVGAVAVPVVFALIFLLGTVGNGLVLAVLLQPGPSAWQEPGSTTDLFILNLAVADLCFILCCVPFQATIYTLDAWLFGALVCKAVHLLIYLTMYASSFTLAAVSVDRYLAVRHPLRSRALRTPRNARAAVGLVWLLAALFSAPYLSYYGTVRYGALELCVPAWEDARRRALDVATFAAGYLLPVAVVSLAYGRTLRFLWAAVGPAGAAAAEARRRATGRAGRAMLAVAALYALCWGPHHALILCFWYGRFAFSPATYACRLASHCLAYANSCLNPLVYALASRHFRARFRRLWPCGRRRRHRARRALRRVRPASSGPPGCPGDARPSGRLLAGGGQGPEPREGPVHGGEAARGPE

[32] = cells; assay type: functional, cell-based; conditions: HEK-CNG
[33] = biological target: T4, COUP transcription factor 2 (Homo sapiens, UniProt P24468); experiment: Luminescence-based cell-based high throughput dose response assay to identify inhibitors of COUP-TFII (NR2F2).; assay type: functional;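 note: HEK293 cells transiently cotransfected with COUP-TFII expression vector and reporter; luciferase reporter luminescence driven by COUP-TFII from the pX2-168 reporter plasmid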
T4 sequence (P24468 whole entry): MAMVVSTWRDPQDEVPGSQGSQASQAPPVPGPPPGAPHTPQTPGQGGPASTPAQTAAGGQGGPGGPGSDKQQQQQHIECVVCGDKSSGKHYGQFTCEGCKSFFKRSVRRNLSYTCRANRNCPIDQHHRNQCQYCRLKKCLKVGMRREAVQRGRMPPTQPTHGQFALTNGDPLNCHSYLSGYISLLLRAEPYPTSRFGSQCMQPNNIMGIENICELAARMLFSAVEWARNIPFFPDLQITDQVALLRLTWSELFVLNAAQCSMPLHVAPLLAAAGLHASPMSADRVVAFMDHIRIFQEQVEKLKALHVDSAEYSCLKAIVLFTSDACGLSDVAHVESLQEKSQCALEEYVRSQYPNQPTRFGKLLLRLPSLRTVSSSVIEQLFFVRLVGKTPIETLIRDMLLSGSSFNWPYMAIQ

T1 sequence (Q932Y6 whole entry): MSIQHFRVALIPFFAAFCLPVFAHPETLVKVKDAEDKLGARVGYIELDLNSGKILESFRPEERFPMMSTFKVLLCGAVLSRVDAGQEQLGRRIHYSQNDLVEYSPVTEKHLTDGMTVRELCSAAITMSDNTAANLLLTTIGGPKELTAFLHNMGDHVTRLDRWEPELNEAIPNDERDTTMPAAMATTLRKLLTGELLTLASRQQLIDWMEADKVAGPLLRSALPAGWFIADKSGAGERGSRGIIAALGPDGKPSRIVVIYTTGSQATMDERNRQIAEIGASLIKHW
Sequence of DNA topoisomerase (A0A2S9PM60 whole entry): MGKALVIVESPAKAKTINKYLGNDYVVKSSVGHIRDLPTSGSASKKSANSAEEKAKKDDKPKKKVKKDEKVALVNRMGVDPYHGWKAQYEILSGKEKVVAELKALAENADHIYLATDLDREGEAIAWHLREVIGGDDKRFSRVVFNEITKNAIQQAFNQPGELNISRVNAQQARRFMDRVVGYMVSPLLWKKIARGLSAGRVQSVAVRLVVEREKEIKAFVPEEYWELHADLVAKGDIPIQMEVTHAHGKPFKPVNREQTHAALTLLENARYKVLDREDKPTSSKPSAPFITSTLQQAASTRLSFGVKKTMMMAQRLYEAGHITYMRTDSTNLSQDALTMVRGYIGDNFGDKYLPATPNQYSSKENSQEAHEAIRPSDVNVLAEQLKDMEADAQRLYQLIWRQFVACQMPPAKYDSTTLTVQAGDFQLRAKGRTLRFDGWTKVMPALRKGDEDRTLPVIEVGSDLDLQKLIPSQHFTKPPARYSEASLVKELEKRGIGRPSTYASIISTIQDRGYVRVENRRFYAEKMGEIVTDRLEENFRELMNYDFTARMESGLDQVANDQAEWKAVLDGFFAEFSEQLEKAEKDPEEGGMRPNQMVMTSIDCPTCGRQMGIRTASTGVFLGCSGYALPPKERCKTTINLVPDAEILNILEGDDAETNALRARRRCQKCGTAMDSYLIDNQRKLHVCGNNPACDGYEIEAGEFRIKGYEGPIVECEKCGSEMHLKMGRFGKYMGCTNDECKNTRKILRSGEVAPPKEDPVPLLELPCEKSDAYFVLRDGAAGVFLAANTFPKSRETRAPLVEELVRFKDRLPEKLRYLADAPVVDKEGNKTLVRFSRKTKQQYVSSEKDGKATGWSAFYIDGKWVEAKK
Sequence of Serine/threonine-protein phosphatase (B9W6M3 whole entry): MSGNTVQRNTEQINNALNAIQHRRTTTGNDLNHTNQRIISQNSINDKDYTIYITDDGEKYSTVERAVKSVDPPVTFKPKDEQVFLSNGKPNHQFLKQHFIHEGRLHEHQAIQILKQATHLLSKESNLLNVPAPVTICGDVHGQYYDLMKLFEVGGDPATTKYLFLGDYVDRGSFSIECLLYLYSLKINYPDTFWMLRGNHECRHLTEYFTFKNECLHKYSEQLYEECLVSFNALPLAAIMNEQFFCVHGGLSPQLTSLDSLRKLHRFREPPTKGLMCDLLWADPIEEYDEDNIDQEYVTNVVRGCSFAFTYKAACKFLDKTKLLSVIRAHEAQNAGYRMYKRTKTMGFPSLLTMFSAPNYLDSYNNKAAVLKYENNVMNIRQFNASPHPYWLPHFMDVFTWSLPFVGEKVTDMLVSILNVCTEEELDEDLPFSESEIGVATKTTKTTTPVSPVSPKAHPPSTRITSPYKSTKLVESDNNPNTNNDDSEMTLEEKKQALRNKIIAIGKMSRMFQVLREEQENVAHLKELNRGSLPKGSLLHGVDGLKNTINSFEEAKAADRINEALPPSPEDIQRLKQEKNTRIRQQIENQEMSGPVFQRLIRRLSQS
Sequence of Dual specificity protein kinase CLK1 (P49759 whole entry): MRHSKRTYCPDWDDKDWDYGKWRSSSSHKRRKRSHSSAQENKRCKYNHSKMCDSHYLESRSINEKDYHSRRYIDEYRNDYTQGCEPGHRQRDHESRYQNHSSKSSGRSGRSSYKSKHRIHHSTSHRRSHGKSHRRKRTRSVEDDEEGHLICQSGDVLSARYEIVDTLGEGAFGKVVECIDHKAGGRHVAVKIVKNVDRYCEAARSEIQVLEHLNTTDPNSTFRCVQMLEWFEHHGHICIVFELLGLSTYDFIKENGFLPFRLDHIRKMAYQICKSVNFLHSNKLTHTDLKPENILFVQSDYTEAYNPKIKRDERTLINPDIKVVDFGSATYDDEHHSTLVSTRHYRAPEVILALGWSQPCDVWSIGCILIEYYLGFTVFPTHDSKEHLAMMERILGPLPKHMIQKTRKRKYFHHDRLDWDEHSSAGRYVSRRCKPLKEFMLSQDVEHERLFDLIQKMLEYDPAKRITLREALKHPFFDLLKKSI
Sequence of ATP-dependent molecular chaperone HSP82 (C4YTQ8 whole entry): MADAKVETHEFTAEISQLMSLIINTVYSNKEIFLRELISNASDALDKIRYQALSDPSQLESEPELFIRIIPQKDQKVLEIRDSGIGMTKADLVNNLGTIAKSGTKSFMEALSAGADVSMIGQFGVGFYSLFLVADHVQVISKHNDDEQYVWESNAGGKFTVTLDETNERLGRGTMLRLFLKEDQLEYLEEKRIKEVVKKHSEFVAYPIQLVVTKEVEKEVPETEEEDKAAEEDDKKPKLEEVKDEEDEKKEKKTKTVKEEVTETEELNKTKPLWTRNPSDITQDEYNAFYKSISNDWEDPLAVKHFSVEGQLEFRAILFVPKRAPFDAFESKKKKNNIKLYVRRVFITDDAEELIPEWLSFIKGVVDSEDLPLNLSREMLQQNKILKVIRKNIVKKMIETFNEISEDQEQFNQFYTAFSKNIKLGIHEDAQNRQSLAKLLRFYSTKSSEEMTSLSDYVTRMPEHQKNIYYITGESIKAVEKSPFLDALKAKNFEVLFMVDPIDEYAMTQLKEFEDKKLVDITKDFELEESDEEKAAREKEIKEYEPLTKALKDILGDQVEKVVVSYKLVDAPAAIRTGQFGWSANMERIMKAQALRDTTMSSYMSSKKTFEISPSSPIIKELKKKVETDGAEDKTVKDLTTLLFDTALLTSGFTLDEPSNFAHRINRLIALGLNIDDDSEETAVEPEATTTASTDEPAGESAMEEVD

For O=C(/C=C/c1cn(CC(O)CN2CCCCCC2)c2ccccc12)c1cccs1 (stereo unspecified), the EC50 [1] was 14.1 µM (active), the EC50 [2] was 11.9 µM (active) and the IC50 [3] was 20.1 µM (inactive). The IC50 [4] was 8.35 µM (active).

For CCOC(=O)c1ccc(-c2ccc3ncnc(NCc4ccc(C)o4)c3c2)o1, the AC50 [5] was 2.72 nM (active) and 93.6 nM (active).

With O=C(CC(=O)c1cccc([N+](=O)[O-])c1)Nc1ccccc1Cl the EC50 [6] was > 150 µM (inactive), the EC50 [7] was 0.524 µM (active) and the EC50 [8] was > 180 µM (inactive). The EC50 [9] was > 160 µM (inactive).

In the case of CC(C)N1CCC(N2CCN(C3CCCCC3)CC2CCO)CC1 (stereo unspecified), the AC50 [10] is reported as 97 µM (active) and the AC50 [11] is reported as 16.8 µM (active).

With Cc1ccc2nsnc2c1NC(=O)c1ccc([N+](=O)[O-])o1 the IC50 [12] was > 80 µM (inactive), the IC50 [13] was 22.7 µM (inactive) and the IC50 [14] was 37.9 µM (inactive).

In the case of CC(C)CN(C(=O)COC(=O)c1c2c(nc3ccccc13)CCC2)c1c(N)n(Cc2ccccc2)c(=O)[nH]c1=O, the AC50 [15] is reported as > 38 µM (inactive).

In the case of CC(C)C(=O)N1CCN(c2nc(-c3ccc(Cl)cc3)cs2)CC1, the AC50 [15] is reported as 1.72 µM (active).

In the case of O=C1c2cccc3c(N4CCCCC4)ccc(c23)C(=O)N1c1cccc(O)c1, the AC50 [16] is reported as 81.5 µM (active), the EC50 [17] is reported as 1.83 µM (active) and the IC50 [3] is reported as > 49.7 µM (inactive). For the same molecule, the IC50 [4] was 5.24 µM (active).

For O=C(/C=C1\C(=O)Nc2ccccc21)/C=C1\C(=O)Nc2ccccc21, the IC50 [18] was > 25 µM (active), the CC50 [19] was 20 µM (active) and the AC50 [20] was 9.5 µM (active). For the same molecule, the AC50 [21] was 64.7 µM (active), the AC50 [22] was 11.7 µM (active) and the IC50 [23] was 1.55 µM (active). For the same molecule, the IC50 [24] was 28.6 µM (inactive).

For COc1ccc(NC(=O)C/C(C)=N/NC(=O)C(=O)Nc2cccc(Cl)c2C)c(OC)c1, the AC50 [10] was 16.3 µM (active) and the AC50 [11] was 51.6 µM (active).

In the case of CC(C)c1ccc(C(NC(=O)C2CCCCC2)c2ccc3cccnc3c2O)cc1 (stereo unspecified), the IC50 [12] is reported as 44.9 µM (inactive), the IC50 [13] is reported as 2.94 µM (active) and the IC50 [14] is reported as 4.61 µM (active).

With CC(C)(C)c1ccc(CSc2cnn(C(C)(C)C)c(=O)c2Cl)cc1 [PYRIDABEN] the EC50 [6] was 103 µM (active), the EC50 [25] was > 120 µM (not active) and the EC50 [26] was 4.13 µM (active). For the same molecule, the EC50 [27] was > 120 µM (not active), the EC50 [28] was > 120 µM (not active) and the EC50 [29] was 20.8 µM (active). For the same molecule, the EC50 [7] was 0.211 µM (active), the EC50 [8] was > 180 µM (inactive) and the EC50 [30] was 123 µM (active). The EC50 [9] was > 160 µM (inactive), the AC50 [22] was < 0.26 µM (active) and the IC50 [31] was 0.00657 µM (active). The EC50 [32] was > 29.9 µM (inactive) and the IC50 [33] was 0.0619 µM (active).
